Data: patent publication US20240285552A1 (priority 2020, published 2024)
Several values for one entry are separate records, joined by “and”; a condition that tells them apart may be missing. Equal values may be shown once. Entries after “also recorded” stand apart in the source; their conditions may differ. Where a name gives a salt, the structure may show the parent alone. Read-outs that look alike come from different tables or passages of the source.

Tests used:
SARS-CoV-2 USA_WA1/2020 [1] = details: hamster
SARS-CoV-2 USA_WA1/2020 [2] = experiment: microbe, parasite or virus in culture; format: cell-based
[3] = target: T1, rhACE2 and SARS-CoV-2 Spike (RBD) protein interaction (Homo sapiens, UniProt Q9BYF1); experiment: Spike (RBD)-ACE2 binding assay (ELISA); set-up: species or system human; SARS-CoV-2; details: for IC50: bell-shaped model, AMB, BHH
T1 construct: purchased RayBiotech CoV-SACE2-1

ACE1 [4] = experiment: Western blotting, ACE1 expression in A549 cells; format: cell-based, human; details: 50 μm, 24 hrs and 48 hrs
Procedure: Western blotting. A549 “Lung” cells (RRID:CVCL_COQ5) were harvested in a radioimmuno precipitation assay (RIPA) buffer (Tris 10 mM pH 7.4, containing 140 mM NaCl, 1 mM EDTA, 1 mM NaF, 0.10% SDS, 0.50% sodium deoxycholate 0.1% NP-40, 1% Triton X-100) in the presence of protease inhibitors (Thermo Fisher) at 24 hrs. and 48 hrs. Protein concentration was determined by was determined using bicinchoninic acid with bovine serum albumin as a standard (Thermo Fisher). Equal amounts of protein were loaded and separated by SDS-PAGE using 10% pre-casted gels (Biorad). Proteins were electroblotted onto nitrocellulose membranes (Bio-Rad). The blots were blocked using 5% (w/v) milk in Tris-buffered saline containing 0.5% (v/v) Tween-20. The membranes were then incubated with different antibodies. Antibodies directed against ACE1 (ab28311) and ACE2 (ab108209) were used and the GAPDH antibody was used as loading control for cell lysates. Primary and secondary antibodies were diluted in Tris-buffered saline containing (0.5% v/v) Tween-20 (TBS-T) supplemented with 5% milk. The bands were visualized by incubating the blots with enhanced chemiluminescence reagent (ECL, Biorad) and visualized using chemidoc. Band intensities were quantified by using imagelab software Biorad.

in vitro = details: African green monkey
[5] = test system: SARS-CoV-2 spike pseudotyped lentivirus; experiment: microbe, parasite or virus in culture; format: cell-based
Vero E6 cells = details: Vero E6
ACE1 [6] = target: T2, ACE1 (Homo sapiens, UniProt P12821); experiment: ACE1 activity assay (colorimetric); format: biochemical
T2 construct: purchased Sigma-Aldrich MAK422
Procedure: ACE1 Activity Assay. ACE1 Inhibitor Screening Kit (Cat #MAK422) was purchased from Sigma-Aldrich (St. Louis, MO) and adapted to determine the effect of BHH and AMB on the enzymatic activity of ACE (Aldrich, 2022). The in vitro colorimetric assay was performed in a transparent flat-bottom 96-well plate. 50 mm and 10 mm solutions of Captropil, a known ACE1 inhibitor were used as a positive inhibitor control. Stock solutions of the compounds were prepared in 100% Dimethyl sulfoxide (DMSO) and further serially diluted in DMSO as follows: 500, 100, 50,10,5,1 and 0.5 μm for AMB and the positive control Captropil. All experiments were performed in quadruplicates. Each plate contained positive controls (1% DMSO) and blank controls with no ACE1 enzyme. Specifically, 2.5 μl of serially diluted compounds were pre-incubated with 2 μl of ACE1 protein diluted in 38 μl of 1× assay diluent buffer for about 15 mins, at room temperature (22° C.). 157.5 μl of 1×ACE1 assay buffer (197.5 μl for −ve control) was added into the 96 well plates. The solution was mixed well and incubated at 37° C. for 15-20 minutes, protected from light. After that, 40 μl of the substrate was added to each well and mixed well. The absorbance was measured immediately at 345 nm (A345) in kinetic mode for 60 minutes.

T1 sequence (Q9BYF1 18-740): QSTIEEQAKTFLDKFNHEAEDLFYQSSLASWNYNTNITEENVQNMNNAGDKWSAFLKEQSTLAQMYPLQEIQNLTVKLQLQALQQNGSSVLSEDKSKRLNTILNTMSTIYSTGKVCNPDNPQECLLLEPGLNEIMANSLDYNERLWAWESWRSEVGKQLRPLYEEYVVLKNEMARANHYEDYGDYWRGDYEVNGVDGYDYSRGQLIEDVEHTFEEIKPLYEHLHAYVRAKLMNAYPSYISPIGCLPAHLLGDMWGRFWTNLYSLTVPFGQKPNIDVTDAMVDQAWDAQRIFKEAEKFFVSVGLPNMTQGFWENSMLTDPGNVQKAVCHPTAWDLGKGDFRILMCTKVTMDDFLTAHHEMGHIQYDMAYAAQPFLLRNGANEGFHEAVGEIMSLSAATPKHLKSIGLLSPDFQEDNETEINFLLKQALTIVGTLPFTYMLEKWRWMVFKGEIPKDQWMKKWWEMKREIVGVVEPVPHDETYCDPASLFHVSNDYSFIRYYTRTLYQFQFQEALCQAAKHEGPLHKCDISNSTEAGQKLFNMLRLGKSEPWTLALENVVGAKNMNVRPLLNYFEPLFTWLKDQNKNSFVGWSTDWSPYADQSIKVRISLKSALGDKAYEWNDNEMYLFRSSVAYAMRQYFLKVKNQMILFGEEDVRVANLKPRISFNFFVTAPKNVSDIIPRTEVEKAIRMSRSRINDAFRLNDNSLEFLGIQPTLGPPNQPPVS
T2 sequence (P12821 30-1306): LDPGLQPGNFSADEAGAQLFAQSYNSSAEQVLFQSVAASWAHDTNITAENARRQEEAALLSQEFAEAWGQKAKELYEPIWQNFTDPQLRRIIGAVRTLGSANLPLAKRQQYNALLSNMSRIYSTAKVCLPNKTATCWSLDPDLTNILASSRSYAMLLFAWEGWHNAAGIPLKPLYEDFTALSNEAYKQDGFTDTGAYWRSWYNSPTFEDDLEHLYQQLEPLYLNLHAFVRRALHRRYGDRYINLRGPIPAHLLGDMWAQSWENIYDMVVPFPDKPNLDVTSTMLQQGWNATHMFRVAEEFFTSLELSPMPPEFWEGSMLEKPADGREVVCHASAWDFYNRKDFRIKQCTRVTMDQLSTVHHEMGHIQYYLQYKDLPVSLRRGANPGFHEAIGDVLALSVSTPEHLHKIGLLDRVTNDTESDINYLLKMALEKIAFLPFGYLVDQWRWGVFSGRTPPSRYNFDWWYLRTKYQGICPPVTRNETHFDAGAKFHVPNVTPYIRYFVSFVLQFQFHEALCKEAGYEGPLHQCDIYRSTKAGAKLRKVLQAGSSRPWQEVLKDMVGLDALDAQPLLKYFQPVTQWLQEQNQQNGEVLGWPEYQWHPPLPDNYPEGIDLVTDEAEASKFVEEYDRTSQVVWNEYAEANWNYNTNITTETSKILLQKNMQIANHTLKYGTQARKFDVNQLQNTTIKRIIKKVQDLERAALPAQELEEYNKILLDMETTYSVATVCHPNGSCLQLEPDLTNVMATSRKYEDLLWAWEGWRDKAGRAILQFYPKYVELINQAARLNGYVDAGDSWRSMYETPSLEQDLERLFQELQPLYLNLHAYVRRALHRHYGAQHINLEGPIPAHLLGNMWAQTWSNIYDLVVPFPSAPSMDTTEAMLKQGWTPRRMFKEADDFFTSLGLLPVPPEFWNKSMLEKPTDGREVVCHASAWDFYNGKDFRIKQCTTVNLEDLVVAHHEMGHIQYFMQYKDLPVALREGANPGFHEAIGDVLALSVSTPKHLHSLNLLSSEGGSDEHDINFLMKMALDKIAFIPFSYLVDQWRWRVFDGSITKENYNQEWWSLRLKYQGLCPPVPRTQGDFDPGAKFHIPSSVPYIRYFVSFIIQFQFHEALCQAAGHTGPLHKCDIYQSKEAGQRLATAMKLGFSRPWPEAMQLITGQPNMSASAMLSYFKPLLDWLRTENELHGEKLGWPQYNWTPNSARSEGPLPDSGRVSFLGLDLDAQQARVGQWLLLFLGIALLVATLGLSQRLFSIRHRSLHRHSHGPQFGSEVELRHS

Nc1c(Br)cc(Br)cc1CN[C@H]1CC[C@H](O)CC1 [AMB, 4-[(2-amino-3,5-dibromophenyl)methylamino]cyclohexan-1-ol; hydrochloride]
Overall Gmean Days 1-4, E sgRNA, rectal swabs (SARS-CoV-2 USA_WA1/2020 [1]): 4.21 copies/swab
Overall Gmean Days 1-4 higher than Group 3, E sgRNA, rectal swabs (SARS-CoV-2 USA_WA1/2020 [1]): 3 fold
Peak viral load versus Group 3, N2 gRNA, rectal swabs (SARS-CoV-2 USA_WA1/2020 [1]): similar
Peak viral replication load higher than Group 3, E sgRNA, rectal swabs (SARS-CoV-2 USA_WA1/2020 [1]): 6 fold
SARS-CoV-2 genome load, N2 gRNA, lungs (SARS-CoV-2 USA_WA1/2020 [1]; Day 4): 4.03E+09 copies/gram
SARS-CoV-2 genome load, N2 gRNA, trachea (SARS-CoV-2 USA_WA1/2020 [1]; Day 4): 6.24E+08 copies/gram
active replication load higher than Group 3, E sgRNA, lungs (SARS-CoV-2 USA_WA1/2020 [1]; Day 4): 2 fold
active replication load, E sgRNA, lungs (SARS-CoV-2 USA_WA1/2020 [1]; Day 4): 2.78E+07 copies/gram
active replication load, E sgRNA, nasal turbinate (SARS-CoV-2 USA_WA1/2020 [1]; Day 4): 1.09E+08 copies/gram
active replication load, E sgRNA, trachea (SARS-CoV-2 USA_WA1/2020 [1]; Day 4): 1.11E+06 copies/gram
genome load higher than Group 3, N2 gRNA, lungs (SARS-CoV-2 USA_WA1/2020 [1]; Day 4): 2 fold
replication load higher than Group 3, E sgRNA, trachea (SARS-CoV-2 USA_WA1/2020 [1]; Day 4): similar
viral load higher than Group 3, N2 gRNA, trachea (SARS-CoV-2 USA_WA1/2020 [1]; Day 4): similar
serum IL-6 levels versus Group 3 (SARS-CoV-2 USA_WA1/2020 [1]; Day 4, ELISA, P<0.05): significantly lower
serum TNF-α versus Group 3 (SARS-CoV-2 USA_WA1/2020 [1]; Day −1, Day 2 (P<0.05), Day 4 (P<0.001)): significantly low
serum IL-10 levels between groups (SARS-CoV-2 USA_WA1/2020 [1]; Days −1, 2, 4): No significance difference
tolerability of administered doses (SARS-CoV-2 USA_WA1/2020 [1]; in vivo): tolerated the administered doses well
incidence and severity of microscopic lesions versus vehicle control (SARS-CoV-2 USA_WA1/2020 [1]; lung histopathology): similar
lung viral load by TCID50 assay versus vehicle control (SARS-CoV-2 USA_WA1/2020 [1]; lung samples Day 4): No difference
SARS-CoV-2 genome load, N2 gRNA, nasal turbinate (SARS-CoV-2 USA_WA1/2020 [1]; necropsy Day 4): 3.57E+10 copies/gram
gross lesions in the lung (SARS-CoV-2 USA_WA1/2020 [1]; necropsy Day 4): reduced gross lesions in the lung
Overall Gmean Days 1-4, E sgRNA, pharyngeal swabs (SARS-CoV-2 USA_WA1/2020 [1]; AMB 500, BHH 200 mg/kg/day PO): 1.89E+04 copies/swab
Overall Gmean Days 1-4 lower than Group 3, E sgRNA, pharyngeal swabs (SARS-CoV-2 USA_WA1/2020 [1]; AMB 500, BHH 200 mg/kg/day PO): 5 fold
Overall Gmean Days 1-4 viral load lower than Group 3, N2 gRNA, pharyngeal swabs (SARS-CoV-2 USA_WA1/2020 [1]; AMB 500, BHH 200 mg/kg/day PO): 4 fold
Overall Gmean viral load Days 1-4, N2 gRNA, pharyngeal swabs (SARS-CoV-2 USA_WA1/2020 [1]; AMB 500, BHH 200 mg/kg/day PO): 4.93E+07 copies/swab
Peak viral load lower than vehicle (Group 3), N2 gRNA, pharyngeal swabs (SARS-CoV-2 USA_WA1/2020 [1]; AMB 500, BHH 200 mg/kg/day PO): 16 fold
Peak viral replication load lower than Group 3, E sgRNA, pharyngeal swabs (SARS-CoV-2 USA_WA1/2020 [1]; AMB 500, BHH 200 mg/kg/day PO): 34 fold
Peak viral load, N2 gRNA, pharyngeal swabs (SARS-CoV-2 USA_WA1/2020 [1]; AMB 500, BHH 200 mg/kg/day PO, peak Day 2 (AMB), Day 1 (BHH)): 9.01E+06 copies/swab
Peak viral replication load, E sgRNA, rectal swabs (SARS-CoV-2 USA_WA1/2020 [1]; peak Day 1 (AMB), Day 2 (BHH)): 20.15 copies/swab
Peak viral replication load, E sgRNA, pharyngeal swabs (SARS-CoV-2 USA_WA1/2020 [1]; peak Day 2 (AMB), Day 1 (BHH)): 2.79E+04 copies/swab
Peak viral load, N2 gRNA, rectal swabs (SARS-CoV-2 USA_WA1/2020 [1]; peak on Day 2): 9.75E+04 copies/swab
Concentration at Maximum % Inhibition (SARS-CoV-2 USA_WA1/2020 [2]; Example C (Table 3)): 150 µM
Maximum Inhibition (SARS-CoV-2 USA_WA1/2020 [2]; Example C (Table 3)): 49.87%
IC50 (SARS-CoV-2 USA_WA1/2020 [2]; Example C (Table 3), hydrochloride, read-out: IC 50 against SARS-COV-2 Induced Cytopathic Effect in Vero E6 Cells): > 150 µM
IC50 (SARS-CoV-2 USA_WA1/2020 [2]; Severe acute respiratory syndrome coronavirus 2, Vero C1008, Example C (Table 3), read-out: IC 50 against SARS-COV-2 Induced Cytopathic Effect in Vero E6 Cells): ≥ 150 µM
IC50 (SARS-CoV-2 USA_WA1/2020 [2]; Severe acute respiratory syndrome coronavirus 2, Vero C1008, Vero E6, Example B, highest concentration tested 30 μM, read-out: IC50 against SARS-CoV-2 infection induced CPE): > 30 µM
inhibition at 30 µM (SARS-CoV-2 USA_WA1/2020 [2]; Severe acute respiratory syndrome coronavirus 2, Vero C1008, at 30 μM, Example B, read-out: inhibition of SARS-CoV-2 induced CPE at maximum concentration): 14.2%
effect on Spike (RBD)-rhACE2 interaction ([3]; 100 μM to 100 nM, hydrochloride): did not produce a stimulation or enhancement of binding; also recorded: more potent at disrupting the interaction between ACE2 and RBD than BHH
IC50 ([3]; highest tested 100 μM, read-out: Estimated Relative IC50 against rhACE2 and RBD Interaction Assay, IC50_2): 232 µM
IC50 ([3]; read-out: Estimated Relative IC50 against rhACE2 and RBD Interaction Assay, IC50_1): 0.82 µM
change of ACE1 expression (ACE1 [4]): no changes
CC50 at 72 h (in vitro; 50% cytotoxic concentration (CC50), Vero E6, 72 hours, Examples A and B, highest concentration 30 μM): > 30 µM
CC50 at 72 h (in vitro; Cytotoxicity CC50, Vero E6, 72 hours, Example C (Table 4)): 184 µM
Percent Inhibition of fusion of SARS-CoV-2 spike pseudotyped lentivirus with HEK293-ACE2 cells ([5]; 10 μM, Table 3, hydrochloride): 86% and 55%
Percent Inhibition of fusion of SARS-CoV-2 spike pseudotyped lentivirus with HEK293-ACE2 cells ([5]; 25 μM, Table 3, hydrochloride): 64%
Percent (%) Inhibition of Pseudo virus Entry in HEK293 Kidney Cells, SARS-COV-2 ([5]; 50 μM, Table 2, hydrochloride): 46%
Percent Inhibition of fusion of SARS-CoV-2 spike pseudotyped lentivirus with HEK293-ACE2 cells ([5]; 50 μM, Table 3, hydrochloride): 59%
Percent Inhibition of fusion of SARS-CoV-2 spike pseudotyped lentivirus with HEK293-ACE2 cells ([5]; 100 μM, Table 3, hydrochloride): 47%
inhibition at 25 µM ([5]; Severe acute respiratory syndrome coronavirus 2, 25 μM, Table 3, read-out: Percent Inhibition of fusion of SARS-CoV-2 spike pseudotyped lentivirus with HEK293-ACE2 cells): 78%
inhibition at 50 µM ([5]; Severe acute respiratory syndrome coronavirus 2, 50 μM, Table 3, read-out: Percent Inhibition of fusion of SARS-CoV-2 spike pseudotyped lentivirus with HEK293-ACE2 cells): 72%
inhibition at 100 µM ([5]; Severe acute respiratory syndrome coronavirus 2, 100 μM, Table 3, read-out: Percent Inhibition of fusion of SARS-CoV-2 spike pseudotyped lentivirus with HEK293-ACE2 cells): 41%
inhibition at 10 µM ([5]; Severe acute respiratory syndrome coronavirus 2, HEK293, 10 μM, Table 2, read-out: Percent (%) Inhibition of Pseudo virus Entry in HEK293 Kidney Cells, SARS-COV-2): 2%
inhibition at 25 µM ([5]; Severe acute respiratory syndrome coronavirus 2, HEK293, 25 μM, Table 2, read-out: Percent (%) Inhibition of Pseudo virus Entry in HEK293 Kidney Cells, SARS-COV-2): 12%
inhibition at 50 µM ([5]; Severe acute respiratory syndrome coronavirus 2, HEK293, 50 μM, Table 2, read-out: Percent (%) Inhibition of Pseudo virus Entry in HEK293 Kidney Cells, SARS-COV-2): ~50%
inhibition at 100 µM ([5]; Severe acute respiratory syndrome coronavirus 2, HEK293, 100 μM, Table 2, read-out: Percent (%) Inhibition of Pseudo virus Entry in HEK293 Kidney Cells, SARS-COV-2): 89%
Conc. at Max. % Viability (Vero E6 cells; Example C (Table 4)): 0.59 µM
Conc. at Min. % Viability (Vero E6 cells; Example C (Table 4)): 300 µM
Min. Viability (Vero E6 cells; Example C (Table 4)): 0.55%
Max. Viability (Vero E6 cells; Example C (Table 4), hydrochloride): 96% and 96.64%
percent minimum viability (Vero E6 cells; at 30 μM, Example B): 113.95%
remaining activity at 500 µM (ACE1 [6]; 500 μM, read-out: ACE activity remaining): 100%
effect on exopeptidase activity of ACE (ACE1 [6]; hydrochloride): did not inhibit the activity of ACE
